Structures can show the parent of a compound that is named as a salt.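 Step 1: Grow cells in 96-well plates. Step 2: Expose to compound for 48 hours at 5 concentrations. Step 3: Interpolate endpoints linearly; if unreached, use highest concentration. At the GI50, growth is halved.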 Calls of active or inactive are those of the source. Rule as the data show it: active = GI50 up to about 1.1 µM and inactive = higher.
Key:
Assay in all cases: NCI-60 cell line screen, 48 h
NCI/ADR-RES = test system: NCI/ADR-RES
SK-OV-3 = test system: SK-OV-3
BT-549 = test system: BT-549
SNB-19 = test system: SNB-19
TK-10 = test system: TK-10
SR = test system: SR
NCI-H23 = test system: NCI-H23
SK-MEL-5 = test system: SK-MEL-5
786-0 = test system: 786-0
KM12 = test system: KM12
IGROV-1 = test system: IGROV-1
K562 = test system: K562
SN12C = test system: SN12C
HT-29 = test system: HT-29
A498 = test system: A498
SK-MEL-2 = test system: SK-MEL-2
OVCAR-5 = test system: OVCAR-5
NCI-H226 = test system: NCI-H226
HCT-116 = test system: HCT-116
SF-295 = test system: SF-295

Row | SMILES | GI50 (NCI/ADR-RES) | GI50 (SK-OV-3) | GI50 (BT-549) | GI50 (SNB-19) | GI50 (TK-10) | GI50 (SR) | GI50 (NCI-H23) | GI50 (SK-MEL-5) | GI50 (786-0) | GI50 (KM12) | GI50 (IGROV-1) | GI50 (K562) | GI50 (SN12C) | GI50 (HT-29) | GI50 (A498) | GI50 (SK-MEL-2) | GI50 (OVCAR-5) | GI50 (NCI-H226) | GI50 (HCT-116) | GI50 (SF-295)
1 | CN(CC1(CO)CCC1)c1cc(Cl)nc(N)n1 | > 100 µM (inactive) | > 100 µM (inactive) | > 100 µM (inactive) | > 100 µM (inactive) | > 100 µM (inactive) | > 100 µM (inactive) | > 100 µM (inactive) | > 100 µM (inactive) | > 100 µM (inactive) | > 100 µM (inactive) | > 100 µM (inactive) | > 100 µM (inactive) | > 100 µM (inactive) | > 100 µM (inactive) | > 100 µM (inactive) | > 100 µM (inactive) | > 100 µM (inactive) | > 100 µM (inactive) | > 100 µM (inactive) | > 100 µM (inactive)
2 | COc1cc2nc(-c3cccs3)nc(Nc3cccc([N+](=O)[O-])c3)c2cc1OC | 20.8 µM (inactive) | 20.3 µM (inactive) | 19.5 µM (inactive) | 17.6 µM (inactive) | 20.8 µM (inactive) | 10.8 µM (inactive) | 11 µM (inactive) | 29.2 µM (inactive) | 21.3 µM (inactive) | 17.9 µM (inactive) | 17.3 µM (inactive) | 39 µM (inactive) | 17.4 µM (inactive) | 28.1 µM (inactive) | > 100 µM (inactive) | 20.7 µM (inactive) | 17.8 µM (inactive) | 18.2 µM (inactive) | 17.8 µM (inactive) | 21.6 µM (inactive)
3 | COc1ccc(/N=C2\C(=S)N(c3ccc(OC)cc3)/C(=N/S(=O)(=O)c3ccccc3)N2c2ccccc2)cc1 | 23.6 µM (inactive) | > 39.9 µM (inactive) | 4.94 µM (inactive) | 36.9 µM (inactive) | 14.7 µM (inactive) | 0.889 µM (active) | 10.2 µM (inactive) | 4.57 µM (inactive) | 7.14 µM (inactive) | 13.2 µM (inactive) | 12.9 µM (inactive) | 1.02 µM (active) | 15.1 µM (inactive) | 19.9 µM (inactive) | > 100 µM (inactive) | 7.64 µM (inactive) | 17.3 µM (inactive) | 16 µM (inactive) | 6.64 µM (inactive) | 22.2 µM (inactive)
4 | C[n+]1c2ccccc2c(CNC(CCC(N)=O)C(=O)O)c2ccccc21 (stereo not given) | 4.56 µM (inactive) | 6.21 µM (inactive) | 4.59 µM (inactive) | 6.18 µM (inactive) | 1.53 µM (inactive) | 1.07 µM (active) | 3.9 µM (inactive) | 1.99 µM (inactive) | 1.01 µM (active) | 2.46 µM (inactive) | 4.15 µM (inactive) | 0.34 µM (active) | 2.64 µM (inactive) | 1.22 µM (inactive) | 0.6 µM (active) | 4.76 µM (inactive) | 9.1 µM (inactive) | 8.3 µM (inactive) | 0.302 µM (active) | 6.71 µM (inactive)
5 | O=C(CN1CCN(c2ccccn2)CC1)N1CCCn2c1nc1ccccc1c2=O | > 100 µM (inactive) | > 100 µM (inactive) | > 100 µM (inactive) | > 100 µM (inactive) | > 100 µM (inactive) | > 100 µM (inactive) | > 100 µM (inactive) | > 100 µM (inactive) | > 100 µM (inactive) | > 100 µM (inactive) | > 100 µM (inactive) | > 100 µM (inactive) | > 100 µM (inactive) | > 100 µM (inactive) | > 100 µM (inactive) | > 100 µM (inactive) | > 100 µM (inactive) | > 100 µM (inactive) | > 100 µM (inactive) | > 100 µM (inactive)
6 | CN/C(N)=N/N=C1/C(=O)Nc2ccccc21 | > 100 µM (inactive) | > 100 µM (inactive) | > 100 µM (inactive) | > 100 µM (inactive) | > 100 µM (inactive) | > 100 µM (inactive) | > 100 µM (inactive) | > 100 µM (inactive) | > 100 µM (inactive) | > 100 µM (inactive) | > 100 µM (inactive) | > 100 µM (inactive) | > 100 µM (inactive) | > 100 µM (inactive) | > 100 µM (inactive) | > 100 µM (inactive) | > 100 µM (inactive) | > 100 µM (inactive) | > 100 µM (inactive) | > 100 µM (inactive)
7 | CCCc1c(OC)c(=O)c2c(O)cc(OC)c3c4c(OC)cc(O)c5c(=O)c(OC)c(CCC)c(c1c23)c54 | 5.26 µM (inactive) | 9.77 µM (inactive) | 2.74 µM (inactive) | 4.32 µM (inactive) | 44.7 µM (inactive) | 0.31 µM (active) | 7.94 µM (inactive) | 3.29 µM (inactive) | 2.84 µM (inactive) | 8.57 µM (inactive) | 2.98 µM (inactive) | 2.33 µM (inactive) | 3.15 µM (inactive) | 4.79 µM (inactive) | 10.6 µM (inactive) | 6.64 µM (inactive) | 10.4 µM (inactive) | 3.46 µM (inactive) | 2.63 µM (inactive) | 9.62 µM (inactive)
8 | O=S(=O)(O)c1ccc(-c2c3nc(c(-c4ccc(S(=O)(=O)O)cc4)c4ccc([nH]4)c(-c4ccc(S(=O)(=O)O)cc4)c4nc(c(-c5ccc(S(=O)(=O)O)cc5)c5ccc2[nH]5)C=C4)C=C3)cc1 | 90.6 µM (inactive) | 58.3 µM (inactive) | 28 µM (inactive) | 65.9 µM (inactive) | 21.6 µM (inactive) | 45.3 µM (inactive) | 64.4 µM (inactive) | 51.2 µM (inactive) | > 100 µM (inactive) | 51.5 µM (inactive) | 53.3 µM (inactive) | 37.2 µM (inactive) | 42.7 µM (inactive) | 49.8 µM (inactive) | > 100 µM (inactive) | > 100 µM (inactive) | 53.5 µM (inactive) | 32.7 µM (inactive) | > 100 µM (inactive) | 47.4 µM (inactive)
9 | CC(=O)N(O)CCCCCNC(=O)CCC(=O)N(O)CCCCCNC(=O)CCC(=O)N(O)CCCCCN [DEFEROXAMINE HYDROCHLORIDE] | > 72.3 µM (inactive) | 38.2 µM (inactive) | 57.5 µM (inactive) | 51.6 µM (inactive) | 42 µM (inactive) | 8.87 µM (inactive) | 63.5 µM (inactive) | 21.7 µM (inactive) | 13.3 µM (inactive) | 26.7 µM (inactive) | 65.6 µM (inactive) | 57.5 µM (inactive) | 25.9 µM (inactive) | 36.6 µM (inactive) | > 80.4 µM (inactive) | > 92.7 µM (inactive) | 12.5 µM (inactive) | 26.9 µM (inactive) | 14 µM (inactive) | 7.38 µM (inactive)

— ChEMBL document CHEMBL1201862, “PubChem BioAssay data set” (2004)
